Results: patent publication US20250313563A1, “GLYCOGEN SYNTHASE KINASE 3 INHIBITORS AND USES THEREOF” (The Broad Institute, Inc., priority 2022, published 2025)
Read-outs that look alike come from different tables or passages of the source.

Legend:
[1] = molecular target: GSK3α (GST-full length GSK3α) (Homo sapiens (Human), UniProt P49840); assay: GSK3α TR-FRET kinase assay; assay type: biochemical
In short: (§1)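 Compound was preincubated 30 min with 1 nM GST-GSK3 enzyme. Reaction ran 100 min at ambient temperature in Tris pH 7.5/MgCl2 with 200 nM biotinylated pS645-glycogen synthase 631-650 peptide and ATP (4 μM GSK3α, 2 μM GSK3b, or 1 mM). The EDTA-stopped reaction was read by TR-FRET (Tb-anti-pSer641/streptavidin-d2), and IC50s were fitted.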

[2] = molecular target: GSK3b (GST-full length GSK3b) (Homo sapiens (Human), UniProt P49841); assay: GSK3b TR-FRET kinase assay; assay type: biochemical
In short: as §1

[3] = 1 nM GSK3α, 4 μM ATP, 30 minute preincubation, geometric mean, read-out: GSK3-A TR-FRET BIOCHEMICAL (TR-FRET), GMean, IC50
[4] = 1 nM GSK3b, 2 μM ATP, 30 minute preincubation, geometric mean, read-out: GSK3-B TR-FRET BIOCHEMICAL (TR-FRET), GMean, IC50
[5] = read-out: GSK3-A (TR-FRET 1 mM ATP), GMean, IC50, 1 mM ATP, geometric mean
[6] = read-out: GSK3-B (TR-FRET 1 mM ATP), GMean, IC50, 1 mM ATP, geometric mean
[7] = 1 nM GSK3α, 4 μM ATP, 30 minute preincubation, Table 16, read-out: GSK3-A TR-FRET BIOCHEMICAL (TR-FRET)
[8] = 1 nM GSK3b, 2 μM ATP, 30 minute preincubation, Table 16, read-out: GSK3-B TR-FRET BIOCHEMICAL (TR-FRET)

Chain of GSK3b (GST-full length GSK3b) (P49841 whole entry): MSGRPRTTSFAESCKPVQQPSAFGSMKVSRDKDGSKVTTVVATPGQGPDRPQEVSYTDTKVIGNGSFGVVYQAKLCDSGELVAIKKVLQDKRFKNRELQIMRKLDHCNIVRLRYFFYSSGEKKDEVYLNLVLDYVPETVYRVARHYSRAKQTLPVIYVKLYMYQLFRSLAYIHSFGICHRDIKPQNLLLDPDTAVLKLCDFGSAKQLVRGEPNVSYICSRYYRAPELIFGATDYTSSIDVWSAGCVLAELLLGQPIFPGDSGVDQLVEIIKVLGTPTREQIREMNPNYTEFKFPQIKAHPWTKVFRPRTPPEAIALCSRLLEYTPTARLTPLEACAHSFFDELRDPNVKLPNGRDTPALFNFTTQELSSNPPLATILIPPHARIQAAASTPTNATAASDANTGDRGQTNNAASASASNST
Chain of GSK3α (GST-full length GSK3α) (P49840 whole entry): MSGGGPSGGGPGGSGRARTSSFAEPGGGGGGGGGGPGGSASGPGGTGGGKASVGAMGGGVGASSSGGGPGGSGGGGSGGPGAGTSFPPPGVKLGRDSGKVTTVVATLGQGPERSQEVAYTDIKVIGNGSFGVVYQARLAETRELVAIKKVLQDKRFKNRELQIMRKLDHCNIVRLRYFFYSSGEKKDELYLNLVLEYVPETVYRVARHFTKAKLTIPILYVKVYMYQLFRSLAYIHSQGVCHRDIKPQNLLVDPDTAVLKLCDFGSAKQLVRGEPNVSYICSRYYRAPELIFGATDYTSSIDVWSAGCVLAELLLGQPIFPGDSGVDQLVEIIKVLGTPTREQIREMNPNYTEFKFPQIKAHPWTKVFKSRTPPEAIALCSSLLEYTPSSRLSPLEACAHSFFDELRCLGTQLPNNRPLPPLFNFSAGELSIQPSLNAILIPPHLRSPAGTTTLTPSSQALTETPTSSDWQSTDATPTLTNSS

Compound | IC50 [1, 3] [nM] | IC50 [2, 4] [nM] | also measured
CCC1(c2cccc(-c3ccnc(N4CCOCC4)c3)c2)C2=C(CC(C)(C)NC2=O)Nc2n[nH]cc21 (stereo not drawn) [Compound 948653] | ≤ 100 | ≤ 100 | 
CCC1(c2cccc(-c3ccnc4cc(Cl)c(C)cc34)c2)C2=C(CC(C)(C)NC2=O)Nc2n[nH]cc21 (stereo not drawn) [Compound 948654] | > 5000 | > 5000 | 
CCC1(c2cccc(-c3ccncc3OC3CC3)c2)C2=C(CC(C)(C)NC2=O)Nc2n[nH]cc21 (stereo not drawn) [Compound 948656] | > 5000 | > 5000 | 
CCc1cnccc1-c1cccc(C2(CC)C3=C(CC(C)(C)NC3=O)Nc3n[nH]cc32)c1 (stereo not drawn) [Compound 948657] | > 5000 | > 5000 | 
CC[C@@]1(c2cccc(-c3ccnc4ccc(C)cc34)c2)C2=C(CC(C)(C)NC2=O)Nc2n[nH]cc21 [Compound 948658] | > 5000 | > 5000 | 
CCC1(c2cccc(-c3ccnc4c(Cl)cccc34)c2)C2=C(CC(C)(C)NC2=O)Nc2n[nH]cc21 (stereo not drawn) [Compound 948659] | > 5000 | > 5000 | 
CCC1(c2cccc(-c3ccnc4cc(OC)ccc34)c2)C2=C(CC(C)(C)NC2=O)Nc2n[nH]cc21 (stereo not drawn) [Compound 948661] | ≤ 100 | 100 to 1000 | 
CCC1(c2cccc(-c3ccnc(N4CCCCC4)c3)c2)C2=C(CC(C)(C)NC2=O)Nc2n[nH]cc21 (stereo not drawn) [Compound 948663] | > 5000 | > 5000 | 
CCC1(c2cccc(-c3cc(C)ncc3F)c2)C2=C(CC(C)(C)NC2=O)Nc2n[nH]c(C)c21 (stereo not drawn) [Compound 948761] | ≤ 100 | ≤ 100 | 
CCC1(c2cccc(OC)c2)C2=C(CC(C)(C)NC2=O)Nc2n[nH]c(C)c21 (stereo not drawn) [Compound 948763] | ≤ 100 | 100 to 1000 | 
CCC1(c2cccc(Oc3ncccn3)c2)C2=C(CC(C)(C)NC2=O)Nc2n[nH]cc21 (stereo not drawn) [Compound 948764] | ≤ 100 | 100 to 1000 | 
CCC1(c2cccc(-c3cc(C)nnc3C)c2)C2=C(CC(C)(C)NC2=O)Nc2n[nH]c(C)c21 (stereo not drawn) [Compound 948765] | ≤ 100 | ≤ 100 | 
CCC1(c2cccc(-c3cnn(C)c3)c2)C2=C(CC(C)(C)NC2=O)Nc2n[nH]c(Cl)c21 (stereo not drawn) [Compound 948767] | ≤ 100 | ≤ 100 | 
CCC1(c2cccc(-c3cn(C)nc3C)c2)C2=C(CC(C)(C)NC2=O)Nc2n[nH]c(Cl)c21 (stereo not drawn) [Compound 948768] | ≤ 100 | ≤ 100 | 
CC[C@]1(c2cccc(-c3ccnc4c3CCC4)c2)C2=C(CC(C)(C)NC2=O)Nc2n[nH]c(C(F)(F)F)c21 [Compound 948769] | 100 to 1000 | 100 to 1000 | 
CC[C@]1(c2cccc(-c3ccncc3F)c2)C2=C(CC(C)(C)NC2=O)Nc2[nH]nc(C(F)(F)F)c21 [Compound 948770] | 100 to 1000 | 100 to 1000 | 
CC[C@]1(c2cccc(S(=O)(=O)C3CC3)c2)C2=C(CC(C)(C)NC2=O)Nc2[nH]nc(C(F)(F)F)c21 [Compound 948771] | ≤ 100 | ≤ 100 | IC50 [1, 5]: ≤ 100 nM; IC50 [2, 6]: 100 to 1000 nM
CCC1(c2cccc(-c3ccnc(C)c3)c2)C2=C(CC(C)(C)NC2=O)Nc2n[nH]c(C(F)(F)F)c21 (stereo not drawn) [Compound 948773] | 1000 to 5000 | > 5000 | 
CC[C@@]1(c2cccc(-c3ccnc(C)c3)c2)C2=C(CC(C)(C)NC2=O)Nc2n[nH]c(C(F)(F)F)c21 [Compound 948774] | ≤ 100 | ≤ 100 | 
CC[C@@]1(c2cccc(-c3cnn4c3CCCC4)c2)C2=C(CC(C)(C)NC2=O)Nc2[nH]nc(C(F)(F)F)c21 [Compound 948775] | ≤ 100 | ≤ 100 | IC50 ([1]; GSK3-A (TR-FRET 1 mM ATP), GMean, IC50, 1 mM ATP, geometric mean): ≤ 100 nM; IC50 ([2]; GSK3-B (TR-FRET 1 mM ATP), GMean, IC50, 1 mM ATP, geometric mean): 100 to 1000 nM
CCC1(c2cccc(S(=O)(=O)C3CC3)c2)C2=C(CC(C)(C)NC2=O)Nc2n[nH]c(C(F)(F)F)c21 (stereo not drawn) [Compound 948776] | 100 to 1000 | 100 to 1000 | 
CC[C@@]1(c2cccc(-c3ccncc3F)c2)C2=C(CC(C)(C)NC2=O)Nc2[nH]nc(C(F)(F)F)c21 [Compound 948777] | ≤ 100 | ≤ 100 | 
CCC1(c2cccc(C3CN(C(C)=O)C3)c2)C2=C(CC(C)(C)CC2=O)Nc2n[nH]cc21 (stereo not drawn) [Compound 948779] |  |  | IC50 [1, 7]: 1000 to 5000 nM; IC50 [2, 8]: > 5000 nM
CCC1(c2cccc(OCC(F)F)c2)C2=C(CC(C)(C)CC2=O)Nc2n[nH]cc21 (stereo not drawn) [Compound 948793] |  |  | IC50 [1, 7]: ≤ 100 nM; IC50 [1, 5]: 100 to 1000 nM; IC50 [2, 8]: ≤ 100 nM; IC50 [2, 6]: > 5000 nM
CC[C@@]1(c2cccc(-c3ccnc4c(F)cccc34)c2)C2=C(CC(C)(C)NC2=O)Nc2n[nH]cc21 [Compound 948813] | 1000 to 5000 | > 5000 | 

Compound | IC50 [1, 3] [nM] | IC50 [2, 4] [nM] | also measured
CC[C@@]1(c2cccc(-c3cnn(C)c3C#N)c2)C2=C(CC(C)(C)NC2=O)Nc2n[nH]cc21 [Compound 948814] | > 5000 | > 5000 | 
CC[C@]1(c2cccc(-c3cnn(C)c3C(F)(F)F)c2)C2=C(CC(C)(C)NC2=O)Nc2n[nH]cc21 [Compound 948815] | ≤ 100 | 100 to 1000 | IC50 [1, 5]: 100 to 1000 nM; IC50 [2, 6]: > 5000 nM
CC[C@@]1(c2cccc(-c3cnn(C(F)F)c3)c2)C2=C(CC(C)(C)NC2=O)Nc2n[nH]cc21 [Compound 948816] | > 5000 | > 5000 | 
CC[C@@]1(c2cccc(-c3ccnc4c3cnn4C)c2)C2=C(CC(C)(C)NC2=O)Nc2n[nH]cc21 [Compound 948817] | > 5000 | > 5000 | 
CC[C@@]1(c2cccc(-c3c(C)c(C)nn3C)c2)C2=C(CC(C)(C)NC2=O)Nc2n[nH]cc21 [Compound 948818] | > 5000 | > 5000 | 
CC[C@@]1(c2cccc(-c3ccnc4cnccc34)c2)C2=C(CC(C)(C)NC2=O)Nc2n[nH]cc21 [Compound 948819] | 1000 to 5000 | > 5000 | 
CCC1(c2cccc(-c3cnn(C)c3C(F)(F)F)c2)C2=C(CC(C)(C)NC2=O)Nc2n[nH]cc21 (stereo not drawn) [Compound 948826] | 1000 to 5000 | > 5000 | 
CCC1(c2cccc(-c3cnn(C)c3C#N)c2)C2=C(CC(C)(C)NC2=O)Nc2n[nH]cc21 (stereo not drawn) [Compound 948827] | ≤ 100 | 100 to 1000 | 
CC[C@@]1(c2cccc(-c3c(C)cncc3C)c2)C2=C(CC(C)(C)NC2=O)Nc2n[nH]cc21 [Compound 948829] | > 5000 | > 5000 | 
CCC1(c2cccc(-c3ccnc(C)c3)c2)C2=C(CC(C)(C)NC2=O)Nc2n[nH]c(Cl)c21 (stereo not drawn) [Compound 948998] | ≤ 100 | ≤ 100 | IC50 [1, 5]: 100 to 1000 nM; IC50 [2, 6]: 1000 to 5000 nM
CCC1(c2cccc(-c3ccncc3F)c2)C2=C(CC(C)(C)NC2=O)Nc2n[nH]c(F)c21 (stereo not drawn) [Compound 948999] | ≤ 100 | 100 to 1000 | 
CC[C@]1(c2cccc(N3CCOCC3)c2)C2=C(CC(C)(C)NC2=O)Nc2n[nH]c(C(F)(F)F)c21 [Compound 949000] | 100 to 1000 | 100 to 1000 | 
CCC1(c2cccc(-c3ccnc(C)c3)c2)C2=C(CC(C)(C)NC2=O)Nc2n[nH]c(F)c21 (stereo not drawn) [Compound 949001] | 100 to 1000 | 100 to 1000 | 
CC[C@]1(c2cccc(-c3cnn(C)c3)c2)C2=C(CC(C)(C)NC2=O)Nc2n[nH]c(F)c21 [Compound 949002] | 1000 to 5000 | > 5000 | 
CCC1(c2cccc(-c3cncn3C)c2)C2=C(CC(C)(C)NC2=O)Nc2n[nH]c(C(F)(F)F)c21 (stereo not drawn) [Compound 949003] | 100 to 1000 | 100 to 1000 | 
CCC1(c2cccc(-c3ccnc(C)c3)c2)C2=C(CC(C)(C)N(C)C2=O)Nc2n[nH]cc21 (stereo not drawn) [Compound 949004] | ≤ 100 | 100 to 1000 | 
CCC1(c2cccc(-c3cn(C)nc3C)c2)C2=C(CC(C)(C)N(C)C2=O)Nc2n[nH]cc21 (stereo not drawn) [Compound 949005] | ≤ 100 | ≤ 100 | IC50 [1, 5]: ≤ 100 nM; IC50 [2, 6]: 1000 to 5000 nM
CC[C@]1(c2cccc(C(F)F)c2)C2=C(CC(C)(C)NC2=O)Nc2n[nH]cc21 [Compound 949006] | ≤ 100 | 100 to 1000 | IC50 [1, 5]: 100 to 1000 nM; IC50 [2, 6]: > 5000 nM
CC[C@@]1(c2cccc(C(F)F)c2)C2=C(CC(C)(C)NC2=O)Nc2n[nH]cc21 [Compound 949007] | 1000 to 5000 | > 5000 | 
CCC1(c2cccc(-c3cn(C)nc3C)c2)C2=C(CC(C)(C)N(C)C2=O)Nc2n[nH]cc21 (stereo not drawn) [Compound 949008] | 1000 to 5000 | > 5000 | 
CCC1(c2cccc(-c3ccnc(C)c3)c2)C2=C(CC(C)(C)N(C)C2=O)Nc2n[nH]cc21 (stereo not drawn) [Compound 949009] | > 5000 | > 5000 | 
CCC1(c2cccc(-c3cncn3C)c2)C2=C(CC(C)(C)NC2=O)Nc2n[nH]c(C(F)(F)F)c21 (stereo not drawn) [Compound 949010] | ≤ 100 | ≤ 100 | IC50 [1, 5]: ≤ 100 nM; IC50 [2, 6]: ≤ 100 nM
CCC1(c2cccc(-c3cnn(C)c3)c2)C2=C(CC(C)(C)NC2=O)Nc2n[nH]c(F)c21 (stereo not drawn) [Compound 949011] | ≤ 100 | 100 to 1000 | 
CC[C@@]1(c2cccc(-c3ccnc(C)c3)c2)C2=C(CC(C)(C)NC2=O)Nc2n[nH]c(F)c21 [Compound 949012] | ≤ 100 | 100 to 1000 | 
